Results as given in US20260240865A1, “HARNESSING IKZF:BETA-CATENIN COMPLEXES IN THE TREATMENT OF LYMPHOCYTE ASSOCIATED DISEASES OR CONDITIONS” (Yale University, priority 2022, published 2026).

Columns and labels:
[1] = test system: B-cell lymphoma cell lines; experiment: Drug responses (AUC) to CHIR99021 across B-cell lymphoma cell lines; assay type: cell-based, human; details: 84 B-cell lymphoma cell lines; 8q24+ n=31, 8q24- n=53; P=5.2E-07
From the text: In some embodiments, the IC50 can be calculated by using the Broad Repurposing Library and the PRISM multiplexed cell-line viability assay. Any assay or technique known in the art can be used for the calculation of the IC50 for the purposed of the present invention. The mutation data for CTNNB1, APC, AXIN1, AXIN2 and GSK3β genes were acquired from https://cancer.sanger.ac.uk/cosmic. The data for RIC staining of β-catenin was obtained from https://www.proteinatlas.org/. The RNA-seq data and mass spectrometry data for β-catenin and IKZF1 in human cancer cell lines were obtained from depmap.org/portal/download/. Data for drug-response of solid tumor cell lines to were acquired from depmap.org/portal/download/. Hallmark Myc-Targets V1 and Hallmark Myc-Targets V2 gene sets were acquired from MSigDB. RNA-seq data was deposited to GEO with the accession number GSE196767 and ChIP-seq data was deposited to GEO with accession number GSE196745. All other data are available from the corresponding author upon reasonable request.

[2] = test system: β-catenin and MYC protein levels in B-ALL cells; experiment: Western blot of β-catenin and MYC after GSK3β inhibitor treatment; assay type: cell-based, human
Description: Cells were washed twice with ice-cold PBS and were lysed in CelLytic buffer (Sigma-Aldrich) supplemented with 1% protease inhibitor cocktail (Roche Diagnostics), 1% phosphatase inhibitor cocktail (EMD Millipore) and 1 mM PMSF (CST) on ice. 10-20 μg of cell lysates were separated on precast gels (Bio-Rad) and transferred on nitrocellulose membranes (Bio-Rad). After blocking for an hour in TBS-T with 2% BSA, membranes were probed with the appropriate primary antibodies listed in Table 6. Membranes were incubated with alkaline-phosphatase conjugated secondary antibodies (Invitrogen) and analyzed with Chemi Doc™ MP Imaging System (Bio-Rad). For fractionation experiment Nuclear and Cytoplasmic Extraction Reagent (Thermo Scientific) was used according to manufacturer's instructions.

[3] = cited from earlier work
[4] = test system: Human B-ALL xenograft cells (SFO5); experiment: Colony formation assay of B-ALL xenograft cells; assay type: cell-based; details: SFO5, lenalidomide 0.5 μM for 2 days
Description: For colony forming assays, 10,000 mouse BCR-ABL1 or NRAS^G12D were grown on MethoCult medium (M3231 or M3630 (with IL-7) respectively, StemCell Technologies) in 3-cm diameter dishes with an extra dish filled with water to prevent evaporation. Colony forming assays with human leukemia/lymphoma cell lines were performed by plating 10,000 cells on MethoCult medium without human cytokines (H4230). For mouse pre-B cells 50.000 cells were grown on MethoCult medium with IL-7 (M3630). For colony forming assays assessing mouse myeloid progenitors, 10,000 cells were grown on MethoCult medium with mouse SCF, IL-3, IL-6, EPO (M3434). For human cord-blood derived colonies, 1000 CD34^+ HSCs were plated on MethoCult medium with recombinant human SCF, IL-3, IL-6, EPO, G-CSF, GM-CSF (H4435). For all colony forming experiments, colonies were imaged and counted using GelCount (Oxford Optronix) and 7-14 days after plating.

Stat5, mouse = target: T1, Stat5, mouse (mouse, UniProt Q9JIA0 1-793); experiment: co-IP with anti-β-catenin antibody and Western blot, murine B-ALL cells (FIG. 4B)
T1 sequence: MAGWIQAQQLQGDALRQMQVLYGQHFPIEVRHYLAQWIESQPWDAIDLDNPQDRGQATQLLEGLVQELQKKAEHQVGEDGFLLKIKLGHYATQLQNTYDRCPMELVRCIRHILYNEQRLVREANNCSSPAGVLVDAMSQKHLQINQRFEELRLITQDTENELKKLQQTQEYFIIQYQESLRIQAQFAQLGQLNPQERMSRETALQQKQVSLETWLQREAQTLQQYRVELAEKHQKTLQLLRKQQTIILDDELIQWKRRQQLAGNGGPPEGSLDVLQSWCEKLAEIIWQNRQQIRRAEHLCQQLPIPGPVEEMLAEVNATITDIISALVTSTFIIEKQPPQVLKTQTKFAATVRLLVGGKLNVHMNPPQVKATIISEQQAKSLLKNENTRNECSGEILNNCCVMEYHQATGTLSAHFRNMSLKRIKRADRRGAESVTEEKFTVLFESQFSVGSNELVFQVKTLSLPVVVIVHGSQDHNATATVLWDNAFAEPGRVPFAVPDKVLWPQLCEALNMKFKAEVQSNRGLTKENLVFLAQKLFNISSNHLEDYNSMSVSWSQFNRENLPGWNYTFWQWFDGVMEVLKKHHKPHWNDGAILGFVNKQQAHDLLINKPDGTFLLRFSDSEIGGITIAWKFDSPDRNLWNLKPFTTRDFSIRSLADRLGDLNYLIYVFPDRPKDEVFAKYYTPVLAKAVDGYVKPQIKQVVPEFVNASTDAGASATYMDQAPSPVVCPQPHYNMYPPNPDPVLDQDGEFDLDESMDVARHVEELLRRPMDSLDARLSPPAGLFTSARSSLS
Description: Co-immunoprecipitation experiments were performed using Pierce Crosslink Magnetic IP/Co-IP kit according to manufacturer's instructions (Thermo Scientific).

Molecule: Cc1c[nH]c(-c2cnc(NCCNc3ccc(C#N)cn3)nc2-c2ccc(Cl)cc2Cl)n1 [CHIR99021, Laduviglusib]
- sensitivity of B-cell lymphoma cell lines with MYC-rearrangement (8q24+) vs without [1]: substantially less sensitive
- β-catenin accumulation and MYC suppression ([2]; B-ALL (PDX2) cells, 16 hours, FIGS. 7A, 7C, 18C): induced massive accumulation of β-catenin in parallel with acute suppression of MYC
- Outcome: clinical responses ([3]; Phase 1 and 2): No clinical responses
- Outcome: MTD ([3]; i.v.): 80 mg
- safety and tolerability / PK/PD profile in clinical trials ([3]; micromolar plasma concentrations (Cmax)): demonstrated safety and tolerability at micromolar plasma concentrations

Molecule: Nc1cccc2c1CN(C1CCC(=O)NC1=O)C2=O (centres unmarked) [lenalidomide]
- colony formation under β-catenin accumulation [4]: relieved β-catenin-induced transcriptional repression of MYC and suppression of colony formation
- MYC expression under β-catenin accumulation ([2]; SFO5 cells, lenalidomide 0.5 μM with LY2090314 20 nM): relieved β-catenin-induced transcriptional repression of MYC

B1: β-catenin (Ctnnb1), mouse (other, UniProt Q02248 2-781, looked up)
chain: ATQADLMELDMAMEPDRKAAVSHWQQQSYLDSGIHSGATTTAPSLSGKGNPEEEDVDTSQVLYEWEQGFSQSFTQEQVADIDGQYAMTRAQRVRAAMFPETLDEGMQIPSTQFDAAHPTNVQRLAEPSQMLKHAVVNLINYQDDAELATRAIPELTKLLNDEDQVVVNKAAVMVHQLSKKEASRHAIMRSPQMVSAIVRTMQNTNDVETARCTAGTLHNLSHHREGLLAIFKSGGIPALVKMLGSPVDSVLFYAITTLHNLLLHQEGAKMAVRLAGGLQKMVALLNKTNVKFLAITTDCLQILAYGNQESKLIILASGGPQALVNIMRTYTYEKLLWTTSRVLKVLSVCSSNKPAIVEAGGMQALGLHLTDPSQRLVQNCLWTLRNLSDAATKQEGMEGLLGTLVQLLGSDDINVVTCAAGILSNLTCNNYKNKMMVCQVGGIEALVRTVLRAGDREDITEPAICALRHLTSRHQEAEMAQNAVRLHYGLPVVVKLLHPPSHWPLIKATVGLIRNLALCPANHAPLREQGAIPRLVQLLVRAHQDTQRRTSMGGTQQQFVEGVRMEEIVEGCTGALHILARDVHNRIVIRGLNTIPLFVQLLYSPIENIQRVAAGVLCELAQDKEAAEAIEAEGATAPLTELLHSRNEGVATYAAAVLFRMSEDKPQDYKKRLSVELTSSLFRTEPMAWNETADLGLDIGAQGEALGYRQDDPSYRSFHSGGYGQDALGMDPMMEHEMGGHHPGADYPVDGLPDLGHAQDLMDGLPPGDSNQLAWFDTDL
notes: Protein from lysates of BCR-ABL1-transformed Ctnnb1^ex3fl/+ murine B-ALL cells, immunoprecipitated with antibody 14/β-catenin; After Cre-ER^T2/4-OHT one allele lacks exon 3 (GSK3β phosphorylation sites), so the stabilised exon-3-deleted form and the wild type are both present
- binding result (Stat5, mouse): no binding
